Source: US9315438B2, “Optically pure benzyl-4-chlorophenyl-C-glucoside derivative” (XUANZHU PHARMA CO., LTD., priority 2014, dated 2016)

What was measured:
[1] = Rat in-vivo pharmacokinetic assay (PO); details: male SD rats, PO 10 mg/kg, plasma
Experimental: Assay animals: 6-8 weeks aged male SD rats (purchased from Vital River Laboratories), 3 rats per compound, weighing 200-240 g.
Solvent: 0.5% MC (methyl cellulose) solution+0.1% SDS (sodium dodecyl sulfate).
Intragastric administration (PO): See Table 2
Blood collection: each of 200 μL whole blood were collected at 0.17 hr, 0.5 hr, 1 hr, 2 hr, 4 hr, 6 hr, 8 hr, 24 hr, 30 hr, 48 hr, 54 hr and 72 hr. The collected blood samples were centrifuged at 4° C. at 8000 rpm in a low temperature high-speed centrifuge (5415R, Eppendorf) for 6 mins to separate the blood plasma. The separated plasma was preserved at −80° C. in a refrigerator.
20 μL of the plasma was carefully taken out, to which was added 600 µL of an internal standard MTBE (methyl tert-butyl ether) solution (containing internal standard dapagliflozin 25 ng/ml). The plasma was subjected to a vortex at 1500 rpm for 10 mins, and then centrifuged at 12000 rpm for 5 mins. 4004 of the supernatant was taken and blow-dried with nitrogen gas. The dried substance was redissolved with 2004 of a redissolving solution (acetonitrile:water=7:3). The solution was subjected to a vortex for 10 mins, and analyzed with LC-MS/MS (API4000, Applied Biosystems).

human SGLT-1 = human SGLT-1 (Homo sapiens (Human), UniProt P13866); assay: In-vitro [14C]-AMG uptake inhibition assay in CHO cells stably expressing human SGLT-1; type: cell-based; details: human SGLT-1 in CHO cells
Sequence of human SGLT-1 (P13866 whole entry): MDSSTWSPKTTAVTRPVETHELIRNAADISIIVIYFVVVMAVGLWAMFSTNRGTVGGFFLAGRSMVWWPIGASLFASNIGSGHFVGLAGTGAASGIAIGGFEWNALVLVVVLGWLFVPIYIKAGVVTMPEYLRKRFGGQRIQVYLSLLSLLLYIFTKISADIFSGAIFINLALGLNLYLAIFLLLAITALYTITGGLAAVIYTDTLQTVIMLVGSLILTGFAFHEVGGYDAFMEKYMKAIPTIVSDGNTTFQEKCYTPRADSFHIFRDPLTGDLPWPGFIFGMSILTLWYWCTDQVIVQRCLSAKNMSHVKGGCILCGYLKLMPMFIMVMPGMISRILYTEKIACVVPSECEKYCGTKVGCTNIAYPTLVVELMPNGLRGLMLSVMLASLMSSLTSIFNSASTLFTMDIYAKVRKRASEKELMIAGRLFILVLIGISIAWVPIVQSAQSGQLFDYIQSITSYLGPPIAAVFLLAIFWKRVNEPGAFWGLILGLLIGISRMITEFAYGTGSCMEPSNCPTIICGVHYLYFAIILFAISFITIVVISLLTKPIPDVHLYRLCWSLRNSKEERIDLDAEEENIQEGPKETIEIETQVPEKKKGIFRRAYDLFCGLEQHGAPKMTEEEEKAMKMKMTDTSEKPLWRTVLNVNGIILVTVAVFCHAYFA
Experimental: In the in-vitro assay for the pharmacological activities of the present compounds, the human SGLT-2 and SGLT-1 sequences were transfected to Chinese hamster ovary cells to express stably. By measuring inhibition of the sodium dependent adsorption of [^14C]-labeled […]-D-glucopyranoside (AMG) into the cells, the half-inhibition concentration IC50 was determined. Buffer A (KRH—Na^+): 120 mM NaCl, 4.7 mM KCl, 1.2 mM MgCl2, 2.2 mM CaCl2, 10 mM HEPES (PH 7.4 with 1 mM Tris). Buffer A− (KRH—NMG): 120 mM NMG, 4.7 mM KCl, 1.2 mM MgCl2, 2.2 mM CaCl2, 10 mM HEPES (PH 7.4 with 1 mM Tris). Buffer D: 120 mM NaCl, 4.7 mM KCl, 1.2 mM MgCl2, 2.2 mM CaCl2, 10 mM HEPES, 0.5 mM phlorizin (PH 7.4 with 1 mM Tris). Assay method: Human SGLT-2 and SGLT-1 sequences were stably expressed in the CHO cells. The cell culture was conducted in a 96-well plate for 12 hr. The plate was washed with KRH—Na+(Buffer A) or KRH-NMG (Buffer A−) buffering solution for three times, 2004/well. Then the plate was added with a buffering solution containing Buffer A or Buffer A− plus [^14C]-AMG (10 μCi/mL), 100 μL/well. The cell culture was conducted at 37° C. for 1 hr. Then, 100 μL of an ice pre-cooled buffering solution (Buffer D) was added to terminate the assay. The plate was washed for five times. Then an ice pre-cooled lytic buffering solution (100 mM NaOH solution) was added, 20 μL/well, and the centrifugation at 600 rpm was conducted for 5 mins. Then Microscint 40 solution was added, 80 μl/well, and the centrifugation at 600 rpm was conducted for 5 mins. Finally, the radioactivity of [^14C]-AMG was detected with MicroBeta Trilux (purchased from PerkinElmer Co. Ltd.) according to the scintillation counting method, and the half-inhibition concentration IC50 was calculated.

human SGLT-2 = human SGLT-2 (Homo sapiens (Human), UniProt P31639); assay: In-vitro [14C]-AMG uptake inhibition assay in CHO cells stably expressing human SGLT-2; type: cell-based; details: for Selectivity: SGLT-1 IC50 / SGLT-2 IC50
Sequence of human SGLT-2 (P31639 whole entry): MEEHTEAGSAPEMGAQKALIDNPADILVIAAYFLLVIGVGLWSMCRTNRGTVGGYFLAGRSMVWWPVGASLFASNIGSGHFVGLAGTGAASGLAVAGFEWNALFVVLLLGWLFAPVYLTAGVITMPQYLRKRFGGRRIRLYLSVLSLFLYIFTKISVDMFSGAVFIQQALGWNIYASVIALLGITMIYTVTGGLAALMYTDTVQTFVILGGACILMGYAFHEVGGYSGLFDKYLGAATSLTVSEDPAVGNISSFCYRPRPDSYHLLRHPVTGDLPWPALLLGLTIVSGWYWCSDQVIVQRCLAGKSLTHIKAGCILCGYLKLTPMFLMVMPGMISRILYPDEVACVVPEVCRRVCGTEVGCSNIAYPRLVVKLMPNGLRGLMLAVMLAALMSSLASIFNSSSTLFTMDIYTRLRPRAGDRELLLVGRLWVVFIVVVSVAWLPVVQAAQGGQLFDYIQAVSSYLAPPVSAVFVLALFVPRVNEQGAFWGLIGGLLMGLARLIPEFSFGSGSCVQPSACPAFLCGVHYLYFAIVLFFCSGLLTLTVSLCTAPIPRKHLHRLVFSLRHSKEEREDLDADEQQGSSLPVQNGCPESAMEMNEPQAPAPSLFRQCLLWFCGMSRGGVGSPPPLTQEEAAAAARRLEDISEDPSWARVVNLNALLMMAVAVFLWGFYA
Experimental: In the in-vitro assay for the pharmacological activities of the present compounds, the human SGLT-2 and SGLT-1 sequences were transfected to Chinese hamster ovary cells to express stably. By measuring inhibition of the sodium dependent adsorption of [^14C]-labeled […]-D-glucopyranoside (AMG) into the cells, the half-inhibition concentration IC50 was determined.
Buffer A (KRH—Na^+): 120 mM NaCl, 4.7 mM KCl, 1.2 mM MgCl2, 2.2 mM CaCl2, 10 mM HEPES (PH 7.4 with 1 mM Tris).
Buffer A− (KRH—NMG): 120 mM NMG, 4.7 mM KCl, 1.2 mM MgCl2, 2.2 mM CaCl2, 10 mM HEPES (PH 7.4 with 1 mM Tris).
Buffer D: 120 mM NaCl, 4.7 mM KCl, 1.2 mM MgCl2, 2.2 mM CaCl2, 10 mM HEPES, 0.5 mM phlorizin (PH 7.4 with 1 mM Tris).
Assay method: Human SGLT-2 and SGLT-1 sequences were stably expressed in the CHO cells. The cell culture was conducted in a 96-well plate for 12 hr. The plate was washed with KRH—Na+(Buffer A) or KRH-NMG (Buffer A−) buffering solution for three times, 2004/well. Then the plate was added with a buffering solution containing Buffer A or Buffer A− plus [^14C]-AMG (10 μCi/mL), 100 μL/well. The cell culture was conducted at 37° C. for 1 hr. Then, 100 μL of an ice pre-cooled buffering solution (Buffer D) was added to terminate the assay. The plate was washed for five times. Then an ice pre-cooled lytic buffering solution (100 mM NaOH solution) was added, 20 μL/well, and the centrifugation at 600 rpm was conducted for 5 mins. Then Microscint 40 solution was added, 80 μl/well, and the centrifugation at 600 rpm was conducted for 5 mins. Finally, the radioactivity of [^14C]-AMG was detected with MicroBeta Trilux (purchased from PerkinElmer Co. Ltd.) according to the scintillation counting method, and the half-inhibition concentration IC50 was calculated.

SMILES | AUC(0-inf) [1] [ng·h/mL] | AUC(0-t) [1] [ng·h/mL] | Cmax [1] [ng/mL] | Tmax [1] [h] | half-life [1] [h] | IC50 (human SGLT-1) [µM] | IC50 (human SGLT-2; human SGLT-2 in CHO cells, [14C]-AMG uptake) [µM] | Selectivity (human SGLT-2)
OC[C@H]1O[C@@H](c2ccc(Cl)c(Cc3ccc(O[C@H]4C[C@@H]5C[C@@H]5C4)cc3)c2)[C@H](O)[C@@H](O)[C@@H]1O [Compound represented by formula (II), (2S,3R,4R,5S,6R)-2-(3-(4-(((1R,3s,5S)-bicyclo[3.1.0]hexan-3-yl)oxy)benzyl)-4-chlorophenyl)-6-(hydroxymethyl)tetrahydro-2H-pyran-3,4,5-triol] | 92100 | 92100 | 6380 | 1 | 8.98 | 17.2 | 0.0025 | –
OC[C@H]1O[C@H](c2ccc(Cl)c(Cc3ccc(O[C@H]4C[C@@H]5C[C@@H]5C4)cc3)c2)[C@H](O)[C@@H](O)[C@@H]1O [Compound represented by formula (IV), (2R,3R,4R,5S,6R)-2-(3-(4-(((1R,3s,5S)-bicyclo[3.1.0]hexan-3-yl)oxy)benzyl)-4-chlorophenyl)-6-(hydroxymethyl)tetrahydro-2H-pyran-3,4,5-triol] | – | – | – | – | – | 111 | – | 100.34
OC[C@H]1O[C@H](c2ccc(Cl)c(Cc3ccc(O[C@@H]4C[C@@H]5C[C@@H]5C4)cc3)c2)[C@H](O)[C@@H](O)[C@@H]1O [Compound represented by formula (V), (2R,3R,4R,5S,6R)-2-(3-(4-(((1R,3r,5S)-bicyclo[3.1.0]hexan-3-yl)oxy)benzyl)-4-chlorophenyl)-6-(hydroxymethyl)tetrahydro-2H-pyran-3,4,5-triol] | – | – | – | – | – | 75.5 | – | 267.77
OC[C@H]1O[C@@H](c2ccc(Cl)c(Cc3ccc(O[C@@H]4C[C@@H]5C[C@@H]5C4)cc3)c2)[C@H](O)[C@@H](O)[C@@H]1O [Compound represented by formula (III), (2S,3R,4R,5S,6R)-2-(3-(4-(((1R,3r,5S)-bicyclo[3.1.0]hexan-3-yl)oxy)benzyl)-4-chlorophenyl)-6-(hydroxymethyl)tetrahydro-2H-pyran-3,4,5-triol] | – | – | – | – | – | 3.08 | – | 392.77
